Assay results from article PMC12621202, “RTx-303, an Orally Bioavailable Polθ Polymerase Inhibitor That Potentiates PARP Inhibitors in BRCA Mutant Tumors” (Journal of Medicinal Chemistry, 2025).
Read-outs that look alike come from different tables or passages of the source.

Columns and labels:
[1] = test system: BRCA2^+/+ HCT116; experiment: Clonogenic (colony) survival assay; format: cell-based; settings: Homo sapiens
Description: (§1) Colony survival assays were performed on 24-well plates. 800 cells/well of HCT, DLD1- BRCA2 −/–, PALB2 −/–, MEF BRCA1 […], PEO1, SNU-601, SKOV3- BRCA2 −/–, OVCAR8 cells and 200 cells/well of HCT, DLD1, MEF, SKOV3 wildtype cells were plated. For MDA pair, 500 cells/well of MDA436 and 100 cells of MDA231 were plated. Cells were treated with the compound 24 h after plating and the medium was replaced every two or 3 days until the colonies were ready for staining. Colonies were typically ready for staining in 10–12 days. For staining: Medium was removed from plates, and cells were rinsed with PBS. Fixation was carried out with Water:Ethanol:Acetic acid (5:4:1) for 30 min followed by staining of colonies with 0.5% crystal violet in Water:Ethanol (3:2) for 2 h at room temperature. The plates were rinsed with water and left for drying overnight at room temperature. Colonies were then counted manually, and response curves are shown as mean colony formation ± SEM. IC50 was calculated with GraphPad Prism using nonlinear regression analysis, inhibitor vs response (variable slope) equation.

[2] = Liver microsome stability; format: in vitro ADME
Description: Liver microsome membranes stability assay. Assays were conducted in 96-well (1 mL) polypropylene plates. In duplicate, test compounds (1 μM) were incubated in 0.5 mL of 100 mM potassium phosphate buffer (pH 7.4) with 0.5 mg/mL pooled liver microsomes from the test species (Gibco; mouse, CD1, male, MSMCPL; rat, Sprague-Dawley, male, RTMCPL; dog, Beagle, male, DGMCPL; human, mixed gender, HMMCPL), 2 mM tetrasodium NADPH and 3 mM MgCl2 for 60 min in a Labnet Vortemp incubator at 37 °C with gentle shaking. At five time points, […] of reaction mixtures were transferred to a 96-shallow-well stop plate on ice containing […] acetonitrile with 0.05 mM propafenone (internal standard). […] Verapamil was the positive reference compound (typical T1/2 = 3 min). Standard curves for test compounds were generated using 5 concentrations in duplicate. Stop plates were centrifuged at 2270 × g for 10 min and […] of the supernatants were transferred to a Waters Acquity UPLC […] 96-well sample plate, sealed with a cap mat and analyzed by UPLC/MS as described. GraphPad Prism v 5.04 was used for nonlinear fitting of time course data to generate T1/2 (min) and in vitro Clint (μL/min/mg) values.

[3] = Solubility (PBS, 2% DMSO); format: physicochemical; settings: PBS with 2% DMSO, aqueous buffer, kinetic from dmso stock
Description: Solubility T1/2 simulated simulated
(PBS, 2% T1/2 mouse intestinal gastric
CF R1 OHOH DMSO) PBS plasma fluid fluid
F3C N N >200 µMN >3 hr >3 hr >3 hr > 3 hr
NN >200 HOµMN >3 hr >3 hr >3 hr > 3 hr
Supplementary Fig. 2 Solubility and stability of RTx-284 and RTx-283.

[4] = test system: BRCA2^-/- HCT116; experiment: Clonogenic (colony) survival assay; format: cell-based, human; settings: for IC50: Homo sapiens; for fold lower IC50 in BRCA2–/– HCT116 cells compared to RTx-161 / selectivity against BRCA2–/– versus BRCA+/+ HCT116 cells: clonogenic survival
Description: as §1

[5] = target: T1, recombinant human Polθ-pol (Homo sapiens, UniProt O75417); experiment: Fluorescent-based IC50 DNA synthesis assay; format: biochemical; settings: n=3
T1 construct: purified recombinant human Polθ-pol (comprising amino acid residues 1792–2590); made in house
T1 sequence (O75417 1792-2590): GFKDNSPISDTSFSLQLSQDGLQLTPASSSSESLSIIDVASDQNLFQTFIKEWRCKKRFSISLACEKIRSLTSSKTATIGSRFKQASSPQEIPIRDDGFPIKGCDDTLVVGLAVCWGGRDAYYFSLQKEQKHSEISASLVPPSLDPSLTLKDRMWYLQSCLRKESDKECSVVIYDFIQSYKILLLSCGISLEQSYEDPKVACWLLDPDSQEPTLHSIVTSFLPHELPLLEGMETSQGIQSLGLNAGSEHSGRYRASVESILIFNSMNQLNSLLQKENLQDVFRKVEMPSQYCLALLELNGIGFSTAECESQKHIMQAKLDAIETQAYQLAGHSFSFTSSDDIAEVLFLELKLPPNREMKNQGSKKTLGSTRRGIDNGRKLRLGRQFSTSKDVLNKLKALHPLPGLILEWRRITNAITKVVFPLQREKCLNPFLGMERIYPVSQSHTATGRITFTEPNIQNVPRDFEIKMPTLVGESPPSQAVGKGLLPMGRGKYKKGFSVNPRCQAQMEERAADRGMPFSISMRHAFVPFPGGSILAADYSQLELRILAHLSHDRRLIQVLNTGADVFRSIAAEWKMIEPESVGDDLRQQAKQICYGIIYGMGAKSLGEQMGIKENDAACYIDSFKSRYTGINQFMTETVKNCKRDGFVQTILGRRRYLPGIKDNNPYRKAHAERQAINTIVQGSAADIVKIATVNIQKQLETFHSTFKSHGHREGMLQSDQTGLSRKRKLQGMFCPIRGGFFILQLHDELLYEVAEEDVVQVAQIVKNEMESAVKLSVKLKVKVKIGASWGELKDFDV
Description: The biochemical Polθ-pol IC50 assay was developed in a prior report. Briefly, 60 nM of the preannealed primer-template containing a 5′ Cy5 fluorophore-conjugated template strand (RP486-Cy5), a downstream complementary oligo conjugated with a 3′ Iowa BlackReg Dark quencher (RP343BHQRQ) and a primer strand (RP469D) was mixed with 50 μM 2’-deoxyribonucleoside triphosphates (dNTPs), 0.1 mg/mL bovine serum albumin (BSA), 0.01% NP-40, 10% glycerol, 1 mM dithiothreitol (DTT), 10 mM MgCl2, 25 mM TrisHCl pH 7.8 in the presence of 2.5% DMSO with or without various concentrations (7-point dilution series) of Polθ-pol small-molecule inhibitors at 37 °C in a volume of 40 μL. The reactions were initiated by the addition of 5 nM of purified recombinant human Polθ-pol (comprising amino acid residues 1792–2590). The reactions were terminated by the addition of 20 mM EDTA after 18 min, and the Cy5 fluorescence intensity was measured using a CLARIOstar (BMG Labtech) plate reader. Reactions were performed in triplicate and the % inhibition at each concentration of the respective compound was based on the mean.

[6] = HCT-116, read-out: IC50 BRCA2^+/+ HCT116 (μM)
[7] = both sexes, pH 7.4, human liver microsomes, read-out: T1/2 human liver microsomes
[8] = male, Beagle, pH 7.4, dog liver microsomes, read-out: T1/2 dog liver microsomes
[9] = male, CD1, pH 7.4, mouse liver microsomes, read-out: T1/2 mouse liver microsomes
[10] = male, Sprague-Dawley, pH 7.4, rat liver microsomes, read-out: T1/2 rat liver microsomes
[11] = HCT-116, read-out: IC50 BRCA2^-/- HCT116 (μM)
[12] = both sexes, pH 7.4, human liver microsomes, read-out: Clint (uL/min/ mg) human
[13] = male, CD1, pH 7.4, mouse liver microsomes, read-out: Clint (uL/min /mg) mouse

Structure (SMILES) | IC50 [1, 6] [µM] | half-life at 1 μM [2, 7] [min] | half-life at 1 μM [2, 8] [min] | half-life at 1 μM [2, 9] [min] | half-life at 1 μM [2, 10] [min] | solubility [3] [µM] | IC50 [4, 11] [µM] | fold lower IC50 in BRCA2–/– HCT116 cells compared to RTx-161 [4] [fold] | selectivity against BRCA2–/– versus BRCA+/+ HCT116 cells [4] [fold] | IC50 [5] [nM] | IC50 ([1]; HCT-116, read-out: IC50(nM) HCT116 BRCA2 +/+) [µM] | microsomal CLint at 1 μM [2, 12] [µL/min/mg] | microsomal CLint at 1 μM [2, 13] [µL/min/mg] | IC50 ([4]; HCT-116, read-out: IC50(nM) HCT116 BRCA2 –/–) [µM]
[2H]C([2H])([2H])N(C(=O)Oc1c(N2CCN(CC(O)CNC)C2=O)cc(C(F)(F)F)cc1C(F)(F)F)c1ccc(F)cc1 (stereo not drawn) [RTx-283, 2-(3-(2-Hydroxy-3-(methylamino)propyl)-2-oxoimidazolidin-1-yl)-4,6-bis(trifluoromethyl)phenyl (4-fluorophenyl)(methyl-d3)carbamate] | 16.3 | > 56 | 24.4 | 44.8 | > 60 | > 200 | 0.03 | > 10 | > 100 | 6.1 | – | – | – | –
[2H]C([2H])([2H])N(C(=O)Oc1c(N2CCN(CC(O)CN(C)C)C2=O)cc(C(F)(F)F)cc1C(F)(F)F)c1ccc(F)cc1 (stereo not drawn) [RTx-284, 2-{3-[3-(Dimethylamino)-2-hydroxypropyl]-2-oxoimidazolidin-1-yl}-4,6-bis(trifluoromethyl)phenyl N-(4-fluorophenyl)-N-(methyl-d3)-carbamate] | > 12 | 15.2 | 7.4 | 8 | > 54 | > 200 | 0.11 | > 10 | > 100 | 5.5 | – | – | – | –
[2H]C([2H])([2H])N(C(=O)Oc1c(N2CCN(C[C@H](O)CN(C)C)C2=O)cc(C(F)(F)F)cc1C(F)(F)F)c1ccc(F)cc1 [RTx-303] | – | 7.3 | – | 7.1 | – | > 200 | – | – | – | 5.1 | > 1.28 | 213 | 204 | 0.0812
[2H]C([2H])([2H])N(C(=O)Oc1c(N2CCN(C[C@H](O)CNC)C2=O)cc(C(F)(F)F)cc1C(F)(F)F)c1ccc(F)cc1 [RTx-315] | – | > 60 | – | 36.3 | – | – | – | – | – | 13.6 | – | < 23 | 39.1 | –
